# According to PMC3514547 (Biochemistry, 2012):
# Several values for one entry are separate records, joined by “and”; a condition that tells them apart may be missing. Identical values can stand only once. Like-named read-outs stand apart in the source and are kept apart here.
# B1: d(GGTTACGGTTAC) (ssDNA)
# DNA: GGTTACGGTTAC
# B2: d(GGTTAGGGTTAG) (ssDNA)
# DNA: GGTTAGGGTTAG
# B3: biotin-d(TAAGGTTAC) (ssDNA)
# DNA: TAAGGTTAC
# modifications: 5' biotin (printed as biotin-conjugated threonine), 3-nt TAA linker
# B4: 6mer (ssDNA)
# DNA: GGTTAC
# Assays:
# [1] = molecular target: T1, Pot1pN (first DNA-binding OB fold of S. pombe Pot1) (Schizosaccharomyces pombe, UniProt O13988); test: ITC of ligand binding to Pot1pN; conditions: for -TΔS / ΔH / Kd: ITC, 20 °C; for Kd: one-site binding model
# [2] = molecular target: T2, Pot1pN binding to 6mer ssDNA (Schizosaccharomyces pombe, UniProt O13988); test: Secondary double filter-binding assay, Pot1pN/6mer; conditions: compound up to 500 μM
# T2 sequence (O13988 1-187 limits assumed): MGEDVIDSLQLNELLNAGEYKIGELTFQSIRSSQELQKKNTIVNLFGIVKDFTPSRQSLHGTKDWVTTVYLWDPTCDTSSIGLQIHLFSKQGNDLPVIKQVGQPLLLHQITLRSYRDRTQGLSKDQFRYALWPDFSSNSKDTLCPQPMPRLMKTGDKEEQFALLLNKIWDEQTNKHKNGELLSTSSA
# [3] = molecular target: T1, Pot1pN (first DNA-binding OB fold of S. pombe Pot1); conditions: read-out: KD of Pot1pN/6mer interaction; cognate ssDNA ligand; cited from earlier work
# [4] = molecular target: T3, SpPot1-DBD binding to d(GGTTACGGTTAC) (Schizosaccharomyces pombe, UniProt O13988); test: Double filter-binding competition assay, SpPot1-DBD/cognate ssDNA
# T3 sequence (O13988 1-389 limits assumed): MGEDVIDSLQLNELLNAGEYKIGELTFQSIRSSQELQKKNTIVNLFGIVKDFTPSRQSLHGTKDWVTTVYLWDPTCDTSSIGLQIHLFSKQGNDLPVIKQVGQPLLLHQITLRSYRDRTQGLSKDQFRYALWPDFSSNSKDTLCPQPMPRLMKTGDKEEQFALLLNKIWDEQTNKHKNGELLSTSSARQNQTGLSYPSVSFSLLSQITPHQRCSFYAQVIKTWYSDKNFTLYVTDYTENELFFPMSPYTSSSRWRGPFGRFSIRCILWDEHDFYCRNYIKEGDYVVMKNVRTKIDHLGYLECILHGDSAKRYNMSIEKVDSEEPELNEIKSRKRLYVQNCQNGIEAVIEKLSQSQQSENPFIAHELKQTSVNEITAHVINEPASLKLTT
# [5] = molecular target: T4, hPOT1-DBD binding to d(GGTTAGGGTTAG) (Homo sapiens, UniProt Q9NUX5); test: Double filter-binding competition assay, hPOT1-DBD/telomeric ssDNA
# T4 sequence (Q9NUX5 1-299): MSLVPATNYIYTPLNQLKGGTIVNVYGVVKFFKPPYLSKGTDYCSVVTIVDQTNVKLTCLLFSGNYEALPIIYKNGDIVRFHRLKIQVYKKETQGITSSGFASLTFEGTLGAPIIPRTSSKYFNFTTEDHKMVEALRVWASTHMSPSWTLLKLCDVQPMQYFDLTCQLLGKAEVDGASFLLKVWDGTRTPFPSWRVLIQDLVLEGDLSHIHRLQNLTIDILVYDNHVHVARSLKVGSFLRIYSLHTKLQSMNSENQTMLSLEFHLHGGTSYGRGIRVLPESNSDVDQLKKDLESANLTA
# Pot1pN = molecular target: T5, Pot1pN (Schizosaccharomyces pombe, UniProt O13988); test: Dynamic light scattering of Pot1pN/CR complex; conditions: DLS, equimolar CR 300 μM
# T5 sequence (O13988 1-187 limits assumed): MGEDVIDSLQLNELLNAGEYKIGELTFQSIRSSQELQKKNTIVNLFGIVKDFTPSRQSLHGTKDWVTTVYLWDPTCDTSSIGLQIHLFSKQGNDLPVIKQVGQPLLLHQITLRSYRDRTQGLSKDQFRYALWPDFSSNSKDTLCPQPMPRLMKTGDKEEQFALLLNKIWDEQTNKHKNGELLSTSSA
# CR solubility at NMR pH = format: physicochemical
# [6] = cited from earlier work
# [7] = tested on: cell culture and animal models; conditions: high doses (~ 100 μM); cited from earlier work
# germ cells = conditions: prenatal administration during germ cell development, mice; cited from earlier work
# amyloidosis phenotypes = conditions: low doses (≤ 10 μM); cited from earlier work
# SpPot1-DBD (Pot1-DBD) = molecular target: T6, SpPot1-DBD (Pot1-DBD) (Schizosaccharomyces pombe, UniProt O13988 1-389); test: double-filter binding
# T6 sequence: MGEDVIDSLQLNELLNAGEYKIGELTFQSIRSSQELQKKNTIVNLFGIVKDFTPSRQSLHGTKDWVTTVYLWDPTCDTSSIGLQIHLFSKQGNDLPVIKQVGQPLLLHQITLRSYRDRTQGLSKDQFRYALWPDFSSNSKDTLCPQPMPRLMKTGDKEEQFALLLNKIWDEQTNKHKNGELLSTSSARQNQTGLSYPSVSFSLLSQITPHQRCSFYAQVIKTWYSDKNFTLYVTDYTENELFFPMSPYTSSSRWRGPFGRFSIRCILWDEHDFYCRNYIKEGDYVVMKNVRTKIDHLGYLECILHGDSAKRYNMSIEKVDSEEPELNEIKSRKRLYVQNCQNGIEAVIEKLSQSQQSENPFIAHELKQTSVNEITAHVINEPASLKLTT
# hPOT1 (hPOT1-DBD) = molecular target: T7, hPOT1 (hPOT1-DBD) (human, UniProt Q9NUX5 1-299); test: double-filter binding
# T7 sequence: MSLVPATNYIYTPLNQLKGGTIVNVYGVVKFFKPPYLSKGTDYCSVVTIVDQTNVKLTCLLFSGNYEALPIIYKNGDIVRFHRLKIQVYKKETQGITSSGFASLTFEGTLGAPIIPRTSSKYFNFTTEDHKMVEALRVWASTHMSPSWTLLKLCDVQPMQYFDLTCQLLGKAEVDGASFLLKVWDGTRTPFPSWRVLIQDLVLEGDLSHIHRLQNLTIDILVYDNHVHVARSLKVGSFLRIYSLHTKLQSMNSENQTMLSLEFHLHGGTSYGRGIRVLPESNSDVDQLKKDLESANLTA
# 6xHis-Pot1pN (TR-FRET) = molecular target: T8, 6xHis-Pot1pN (TR-FRET) (Schizosaccharomyces pombe, UniProt O13988 1-187); test: TR-FRET
# T8 sequence: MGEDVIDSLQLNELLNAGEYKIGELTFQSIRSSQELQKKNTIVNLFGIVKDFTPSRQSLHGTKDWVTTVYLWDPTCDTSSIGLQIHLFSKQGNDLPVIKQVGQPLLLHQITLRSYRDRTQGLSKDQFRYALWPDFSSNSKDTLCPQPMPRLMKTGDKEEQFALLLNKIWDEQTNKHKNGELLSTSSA
# [8] = molecular target: T9, Pot1pN (first OB fold of SpPot1) (Schizosaccharomyces pombe, UniProt O13988 1-187); test: double-filter binding
# T9 sequence: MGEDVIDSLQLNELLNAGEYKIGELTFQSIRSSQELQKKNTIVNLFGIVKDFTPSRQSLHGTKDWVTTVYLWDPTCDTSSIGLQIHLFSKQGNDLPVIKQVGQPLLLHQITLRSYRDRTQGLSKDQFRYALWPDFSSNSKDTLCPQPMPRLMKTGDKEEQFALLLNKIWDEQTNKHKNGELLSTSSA
molecule,measurement,setting,value
"Cc1cc(-c2ccc(/N=N/c3c(S(=O)(=O)O)cc4cc(S(=O)(=O)O)cc(N)c4c3O)c(C)c2)ccc1/N=N/c1c(S(=O)(=O)O)cc2cc(S(=O)(=O)O)cc(N)c2c1O [TB, Trypan blue]",-TΔS,[1],5.7 ± 0.02 kcal/mol
same,ΔH,[1],-13.6 ± 0.004 kcal/mol
same,Kd,[1],1210 nM and 1200 nM
Cc1ccc2c(c1)sc(-c1ccc(N(C)C)cc1)[n+]2C [Thioflavin T],inhibition of Pot1pN binding to 6mer,[2],no effect
same,binding to Pot1pN by ITC,"[1]; 2 mM Thioflavin T titrated into Pot1pN, single replicate",no detectable binding
d(GGTTAC) [6mer],Kd,[3],30 nM
"Nc1c(/N=N/c2ccc(-c3ccc(/N=N/c4cc(S(=O)(=O)O)c5ccccc5c4N)cc3)cc2)cc(S(=O)(=O)O)c2ccccc12 [CR, Congo red]",IC50,[4],112000 ± 9000 nM
same,IC50,[5],130000 ± 17000 nM
same,inhibition of Pot1pN binding to 6mer,[2],functionally inhibited Pot1pN binding to 6mer
same,calculated radius of Pot1pN/CR species,Pot1pN,3.8 nm
same,calculated MW of Pot1pN/CR species,Pot1pN; consistent with 3:3 trimer complex,77 kDa
same,solubility behaviour at pH 6.15,CR solubility at NMR pH,precipitates from solution
same,aggregation point,[6],50 µM
same,toxicity,[7],toxic
same,effect on germ cell number,germ cells,drastic and permanent reduction in germ cell number
same,effect on amyloidosis phenotypes and cell survival,amyloidosis phenotypes,rescue amyloidosis phenotypes and prolong cell survival
same,binding stoichiometry (n),"[1]; ITC forward titration, one-site model",1.07 ± 0.02
same,-TΔS,[1],1.4 ± 0.2 kcal/mol
same,ΔH,[1],-9.7 ± 0.2 kcal/mol
same,Kd,[1],700 ± 10 nM
B1,binding result,SpPot1-DBD (Pot1-DBD),binds
B2,binding result,hPOT1 (hPOT1-DBD),binds
B3,binding result,6xHis-Pot1pN (TR-FRET),binds
B4,binding result,[8],binds
